Assay [1] concerns Her2 receptor expression at the surface of SKBr3 cells. In words: phenotypic SKBr3/HER2 cell test (Her2 surface expression by flow cytometry). It counts as cell-based. Particulars: Homo sapiens, SK-BR-3, 24 h incubation, inhibition of Her2 expression. The method, boiled down:
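SKBr3 cells (Her2-overexpressing adenocarcinoma) treated 24 h with compound at varying concentrations, then stained with PE-anti-Her2 antibody 30 min at 4° C; surface Her2 measured by flow cytometry. IC50 from nonlinear fit of % inhibition of Her2 expression versus concentration.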
(In general: In flow cytometry, cells or beads pass a laser one at a time.)

The target in the next assay is Hsp82 (Saccharomyces cerevisiae, UniProt P02829). In words: Hsp82/ATPase test (malachite green or PK/LDH coupled method). To be noted: 1 μM Hsp82, 250 μM ATP, 37° C.; read-out: Hsp82 ATPase IC50. It counts as biochemical. As for the experimental part:
The biochemical activity of the compounds can in particular be evaluated by means of the “Hsp82/ATPase” test described below: The inorganic phosphate released during the hydrolysis of ATP by the ATPase activity of Hsp82 is quantified by the malachite green method. In the presence of this reagent, formation of the inorganic phosphate-molybdate-malachite green complex, which absorbs at a wavelength of 620 nm, occurs. The products to be evaluated are incubated in a reaction volume of 30 μl, in the presence of 1 μM Hsp82 and of 250 μM of substrate (ATP) in a buffer composed of 50 mM Hepes-NaOH (pH 7.5), 1 mM DTT, 5 mM MgCl2 and 50 mM KCl at 37° C. for 60 min. In parallel, an inorganic phosphate range of between 1 and 40 μM is made up in the same buffer. […] After incubation at ambient temperature for 20 min, the absorbance of the various wells is measured using a microplate reader at 620 nm. The inorganic phosphate concentration of each sample is then calculated from the standard curve. The ATPase activity of Hsp82 is expressed as concentration of inorganic phosphate produced in 60 minutes. The effect of the various products tested is expressed as percentage inhibition of the ATPase activity. The formation of ADP due to the ATPase activity of Hsp82 was used to develop another method for evaluating the enzyme activity of this enzyme by application of an enzymatic coupling system involving pyruvate kinase (PK) and lactate dehydrogenase (LDH). In this kinetic-type spectrophotometric method, PK catalyses the formation of ATP and of pyruvate from phosphoenol pyruvate (PEP) and the ADP produced by Hsp82. The pyruvate formed, which is a substrate for LDH, is subsequently converted to lactate in the presence of NADH. In this case, the decrease in the NADH concentration, measured through the decrease in absorbance at the wavelength of 340 nm, is proportional to the concentration of ADP produced by Hsp82. The products tested are incubated in a reaction volume of 100 μl of buffer composed of 100 mM Hepes-NaOH (pH 7.5), 5 mM MgCl2, 1 mM DTT, 150 mM KCl, 0.3 mM NADH, 2.5 mM PEP and 250 μM ATP. This mixture is preincubated at 37° C. for 30 minutes before the addition of 3.77 units of LDH and 3.77 units of PK. The reaction is initiated by addition of the product to be evaluated, in varying concentrations, and of Hsp82, at the concentration of 1 μM. The enzymatic activity of Hsp82 is then measured continuously, in a microplate reader, at 37° C., at the wavelength of 340 nm. The initial rate of the reaction is obtained by measuring the slope of the tangent to the origin of the curve recorded. The enzymatic activity is expressed in μM of ADP formed per minute. The effect of the various products tested is expressed as percentage inhibition of the ATPase activity according to the codification below: […]

Where a name gives a salt, the structure may show the parent alone. Where only a bound is given, the exact number is not on record here.

Chain of Hsp82 (P02829 whole entry): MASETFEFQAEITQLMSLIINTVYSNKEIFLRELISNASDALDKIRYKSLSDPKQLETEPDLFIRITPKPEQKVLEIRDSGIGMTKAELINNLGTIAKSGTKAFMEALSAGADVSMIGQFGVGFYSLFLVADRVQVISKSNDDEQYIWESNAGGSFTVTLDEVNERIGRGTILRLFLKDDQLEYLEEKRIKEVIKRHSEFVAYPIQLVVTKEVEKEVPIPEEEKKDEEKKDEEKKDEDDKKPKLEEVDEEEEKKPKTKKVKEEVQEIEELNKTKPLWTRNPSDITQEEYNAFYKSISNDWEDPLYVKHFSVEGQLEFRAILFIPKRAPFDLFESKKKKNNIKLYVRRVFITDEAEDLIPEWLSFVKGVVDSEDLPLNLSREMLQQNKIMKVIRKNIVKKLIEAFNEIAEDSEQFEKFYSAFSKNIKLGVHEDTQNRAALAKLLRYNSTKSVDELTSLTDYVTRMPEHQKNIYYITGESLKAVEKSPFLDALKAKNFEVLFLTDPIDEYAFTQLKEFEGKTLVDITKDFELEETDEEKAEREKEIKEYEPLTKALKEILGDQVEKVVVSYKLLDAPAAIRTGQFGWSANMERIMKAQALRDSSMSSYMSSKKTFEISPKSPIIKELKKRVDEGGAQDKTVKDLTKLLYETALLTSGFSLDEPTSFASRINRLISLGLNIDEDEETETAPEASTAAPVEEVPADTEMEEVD

For `CC(C)(C)OC(=O)CC(=O)O[C@H]1CC[C@H](Nc2cc(-n3c4ccccc4c4c(-c5nc6ccc(F)cc6[nH]5)cccc43)ccc2C(N)=O)CC1` [Example 15, tert-butyl and 4-{2-carbamoyl-5-[4-(6-fluoro-1H-benzimidazol-2-yl)-9H-carbazol-9-yl]phenylamino}cyclohexyl ester of malonic acid], the IC50 in assay [1] was less than 1000 nM; on Hsp82, 1000 to 10000 nM.
In the same order, the values of `Nc1nn(CCO)c2cc(-n3c4ccccc4c4c(-c5nc6ccc(F)cc6[nH]5)cccc43)ccc12` [Example 16, 2-{3-amino-6-[4-(6-fluoro-1H-benzimidazol-2-yl)-9H-carbazol-9-yl]indazol-1-yl}ethanol] are 1000 to 10000 nM and 1000 to 10000 nM.
In the same order, the values of `CC(=O)NCCNc1cc(-n2c3ccccc3c3c(-c4nc5ccc(F)cc5[nH]4)cccc32)ccc1C(N)=O` [Example 17, 2-(2-acetylaminoethylamino)-4-[4-(6-fluoro-1H-benzimidazol-2-yl)-9H-carbazol-9-yl]benzamide] are less than 1000 nM and less than 1000 nM.
Regarding `NCCNc1cc(-n2c3ccccc3c3c(-c4nc5ccc(F)cc5[nH]4)cccc32)ccc1C(N)=O` [Example 18, 2-(2-aminoethylamino)-4-[4-(6-fluoro-1H-benzimidazol-2-yl)-9H-carbazol-9-yl]benzamide], the IC50 in assay [1] is 1000 to 10000 nM; on Hsp82 it was less than 1000 nM.
The corresponding values for `NC(=O)c1ccc(-n2c3ccccc3c3c(-c4nc5ccc(F)cc5[nH]4)cccc32)nc1` [Example 19, 6-[4-(6-fluoro-1H-benzimidazol-2-yl)carbazol-9-yl]nicotinamide] are 1000 to 10000 nM and 1000 to 10000 nM.
`NC(=O)c1ccc(-n2c3ccccc3c3c(-c4ccc(N)nc4)cccc32)cc1N[C@H]1CC[C@H](O)CC1` [Example 20, 4-[4-(6-aminopyridin-3-yl)-9H-carbazol-9-yl]-2-[(4-trans-hydroxycyclohexyl)amino]benzamide]: the IC50 (in assay [1]; at Hsp82) was less than 1000 nM throughout.
On to `CC(C)(C)OC(=O)NCC(=O)O[C@H]1CC[C@H](Nc2cc(-n3c4ccccc4c4c(-c5nc6ccc(F)cc6[nH]5)cccc43)ccc2C(N)=O)CC1` [Example 21, tert-butoxycarbonylaminoacetic acid 4-trans-{2-carbamoyl-5-[4-(6-fluoro-1H-benzimidazol-2-yl)-9H-carbazol-9-yl]phenylamino}cyclohexyl ester], for which the IC50 in assay [1] is less than 1000 nM; on Hsp82 it was 1000 to 10000 nM.
In the same order, the values of `C[C@H](NC(=O)OC(C)(C)C)C(=O)O[C@H]1CC[C@H](Nc2cc(-n3c4ccccc4c4c(-c5nc6ccc(F)cc6[nH]5)cccc43)ccc2C(N)=O)CC1` [Example 22, 2(S)-tert-butoxycarbonylaminopropionic acid 4-trans-{2-carbamoyl-5-[4-(6-fluoro-1H-benzimidazol-2-yl)-9H-carbazol-9-yl]phenylamino}cyclohexyl ester] are less than 1000 nM and 1000 to 10000 nM.
The corresponding values for `CC(C)(C)OC(=O)NCCC(=O)O[C@H]1CC[C@H](Nc2cc(-n3c4ccccc4c4c(-c5nc6ccc(F)cc6[nH]5)cccc43)ccc2C(N)=O)CC1` [Example 23, 3-tert-butoxycarbonylaminopropionic acid 4-trans-{2-carbamoyl-5-[4-(6-fluoro-1H-benzimidazol-2-yl)-9H-carbazol-9-yl]phenylamino}cyclohexyl ester] are less than 1000 nM and 1000 to 10000 nM.
In the same order, the values of `NCCC(=O)O[C@H]1CC[C@H](Nc2cc(-n3c4ccccc4c4c(-c5nc6ccc(F)cc6[nH]5)cccc43)ccc2C(N)=O)CC1` [Example 24, trifluoroacetate of the 4-trans-{2-carbamoyl-5-[4-(6-fluoro-1H-benzimidazol-2-yl)-9H-carbazol-9-yl]phenylamino}cyclohexyl ester of 3-aminopropionic acid] are less than 1000 nM and 1000 to 10000 nM.
Turning to `NCC(=O)O[C@H]1CC[C@H](Nc2cc(-n3c4ccccc4c4c(-c5nc6ccc(F)cc6[nH]5)cccc43)ccc2C(N)=O)CC1` [Example 25, trifluoroacetate of the 4-trans-{2-carbamoyl-5-[4-(6-fluoro-1H-benzimidazol-2-yl)-9H-carbazol-9-yl]phenylamino}cyclohexyl ester of aminoacetic acid], the results for the IC50 (in assay [1]; on Hsp82) were less than 1000 nM and 1000 to 10000 nM, respectively.
In the same order, the values of `C[C@H](N)C(=O)O[C@H]1CC[C@H](Nc2cc(-n3c4ccccc4c4c(-c5nc6ccc(F)cc6[nH]5)cccc43)ccc2C(N)=O)CC1` [Example 26, trifluoroacetate of the 4-trans-{2-carbamoyl-5-[4-(6-fluoro-1H-benzimidazol-2-yl)-9H-carbazol-9-yl]phenylamino}cyclohexyl ester of 2(S)-aminopropionic acid] are less than 1000 nM and less than 1000 nM.
The corresponding values for `NC(=O)c1ccc(-n2c3ccccc3c3c(-c4ccc(CO)nc4)cccc32)cc1N[C@H]1CC[C@H](O)CC1` [Example 29, 2-[(4-trans-hydroxycyclohexyl)amino]-4-{4-[6-(hydroxymethyl)pyridin-3-yl]-9H-carbazol-9-yl}benzamide] are less than 1000 nM and less than 1000 nM.
The corresponding values for `NC(=O)c1ccc(-n2c3ccccc3c3c(-c4cnc5ccccc5c4)cccc32)cc1` [Example 30, 4-[4-(quinolin-3-yl)-9H-carbazol-9-yl]benzamide] are 1000 to 10000 nM and 1000 to 10000 nM.
As to `NC(=O)c1ccc(-n2c3ccccc3c3c(-c4cnc5ccccc5c4)cccc32)cc1NCCCO` [Example 31, 2-(3-hydroxypropyl)amino-4-[4-(quinolin-3-yl)-9H-carbazol-9-yl]benzamide], the IC50 (in assay [1]; on Hsp82) was less than 1000 nM each time.
With `CC(O)CCNc1cc(-n2c3ccccc3c3c(-c4cnc5ccccc5c4)cccc32)ccc1C(N)=O` (stereo not drawn) [Example 32, 2-(3-hydroxybutyl)amino-4-[4-(quinolin-3-yl)-9H-carbazol-9-yl]benzamide], the IC50 (in assay [1]; on Hsp82) was less than 1000 nM throughout.
Regarding `COCCCNc1cc(-n2c3ccccc3c3c(-c4cnc5ccccc5c4)cccc32)ccc1C(N)=O` [Example 33, 2-(3-methoxypropyl)amino-4-[4-(quinolin-3-yl)-9H-carbazol-9-yl]benzamide], the 50% inhibitory concentration (IC50) (in assay [1]; on Hsp82) was less than 1000 nM throughout.
Consider `NC(=O)CCNc1cc(-n2c3ccccc3c3c(-c4cnc5ccccc5c4)cccc32)ccc1C(N)=O` [Example 34, 2-(2-carbamoylethylamino)-4-[4-(quinolin-3-yl)-9H-carbazol-9-yl]benzamide], for which the IC50 (in assay [1]; at Hsp82) was less than 1000 nM throughout.
For the compound `COCCCNc1cc(-n2c3ccccc3c3c(-c4nc5ccc(F)cc5[nH]4)cccc32)ccc1C(N)=O` [Example 38, 4-[4-(6-fluoro-1H-benzimidazol-2-yl)-9H-carbazol-9-yl]-2-(3-methoxypropylamino)benzamide], the IC50 (in assay [1]; at Hsp82) was less than 1000 nM in each case.
Take `NC(=O)c1ccc(-n2c3ccccc3c3c(-c4nc5ccc(F)cc5[nH]4)cccc32)cc1NCCO` [Example 42, 4-[4-(6-fluoro-1H-benzimidazol-2-yl)-9H-carbazol-9-yl]-2-(2-hydroxyethylamino)benzamide]: the IC50 (in assay [1]; on Hsp82) was less than 1000 nM throughout.
Consider `CN(C)CCNc1cc(-n2c3ccccc3c3c(-c4nc5ccc(F)cc5[nH]4)cccc32)ccc1C(N)=O` [Example 43, 2-(2-dimethylaminoethylamino)-4-[4-(6-fluoro-1H-benzimidazol-2-yl)-9H-carbazol-9-yl]benzamide], for which the IC50 (in assay [1]; on Hsp82) was less than 1000 nM throughout.

In general, IC50 refers to the point on the concentration scale where inhibition reaches its midpoint.

These data come from patent US8309721B2, “HSP90 inhibitory carbazole derivatives, compositions containing same and use thereof” (Sanofi, priority 2008, dated 2012).
